According to patent US20100267637A1, “TREATMENT OF MELANOMA WITH ALPHA THYMOSIN PEPTIDES IN COMBINATION WITH A KINASE INHIBITOR” (SciClone Pharmaceuticals, Inc., priority 2007, published 2010):

System: murine B16 melanoma cells
Assay: Anti-tumor effect: tumor size / tumor volume in mice bearing subcutaneous B16 melanoma
Format: in vivo, C57BL/6 mice
Set-up: key to Tumor measurement L (length) / Tumor measurement W (width): The sign “—” indicates that tumor does not reach a measurable size
Settings: for Tumor Volume (cm^3) (Mean ± SD): group mean; for PI (TV), percent inhibition of tumor volume: vs vehicle; for Tumor volumes on Day 15: Length × Width × Width/2
Protocol: The toxic effects of the dosing regimens were also monitored. […] Meanwhile 9H10 was given in two groups via i.p. on Day 3, 6 and 9. […] Tumor volume and body weight were measured every three days, and tumor weights were measured on Day 16 at the end of the study.
As per aseptic tissue culture procedures, one vial of B16 melanoma cells was removed from the liquid nitrogen stock, and placed into a 37° C. water bath. Gentle swirling was conducted until the content of the vial was thawed. Using tissue culture/sterile procedures, the cells were immediately centrifuged with a TD5A-WS centrifuge at 1000 rpm, 20-25° C., 5 min. After centrifugation, the cells were suspended in 0.1 to 0.5 mL normal saline (NS) and subcutaneously injected into 10 mice (0.1 mL/mouse, about 1×10^6 cells). After 7-10 days, when the tumor diameter was approximately 1 cm, the animals were euthanized with CO2 overdose and the tumors excised. The procedure was repeated with 20 mice to generate a sufficient number of B16 melanoma cells with adequate transplantability.
On the day of tumor implantation, approximately 1×10^6 cells in 0.1 mL were subcutaneously injected on the right axillary area of each mouse. The day of tumor implantation was defined as Day 0.
On Day 3, the animals were randomly assigned into nine different weight-matched and tumor-size-matched groups. Dosing was started on Day 3 using the regimen according to Table 2.
From Day 1 to Day 15, mortality and moribundity were checked twice daily, the body weights were recorded once every 3 days, and tumors were measured using a caliper once every 3 days. At the end of the study (Day 16), the animals were euthanized by CO2 asphyxiation, and the tumors were excised and weighed.
Based on the tumor size, the tumor volume (TV) was calculated with the formula: [TV=(Length×Width×Width)/2]. And the percent inhibition (PI) of TV (PITV) was calculated according to the equation below:
PITV(%)=(TV vehicle−TVdrug treated)/TV vehicle×100
Inter-group comparison was performed in terms of tumor volume, tumor weight and body weight, using a student's t test. P values of less than 0.05 were considered to be statistically significant.

CN(C)/N=N/c1[nH]cnc1C(N)=O [DTIC, Dacarbazine]
43.22%: PI (TV), percent inhibition of tumor volume (Day 12)
0.3 cm: Tumor measurements on Day 12, L (Day 12, animal F5)
0.60 cm: Tumor measurements on Day 15, L (Day 15, animal F3) | Tumor measurements on Day 15, W (Day 15, animal F3) | Tumor measurements on Day 15, L (Day 15, animal F5) | Tumor measurements on Day 15, W (Day 15, animal F5)
0.8640 cm^3: Tumor volumes on Day 15 (Day 15, animal M2) | Tumor volumes on Day 15 (Day 15, animal M4)
−400.00%: PI (TV), percent inhibition of tumor volume (Day 3)
0.195 ± 0.1932 cm^3: Tumor Volume (cm^3) (Mean ± SD) (Day 12)
0.0000 cm^3: Tumor volume (Day 3, animal F1) | Tumor volume (Day 3, animal F2) | Tumor volume (Day 3, animal F4) | Tumor volume (Day 3, animal F5) | Tumor volume (Day 3, animal M1) | Tumor volume (Day 3, animal M3) | Tumor volume (Day 3, animal M4) | Tumor volume (Day 6, animal F1) | Tumor volume (Day 6, animal F2) | Tumor volume (Day 6, animal F4) | Tumor volume (Day 6, animal F5) | Tumor volume (Day 6, animal M1) | Tumor volume (Day 6, animal M2) | Tumor volume (Day 6, animal M3) | Tumor volume (Day 6, animal M4) | Tumor volume (Day 6, animal M5) | Tumor volume (Day 9, animal F2)
71.15%: PI (TV), percent inhibition of tumor volume (Day 9)
0.1080 cm^3: Tumor volumes on Day 15 (Day 15, animal F3) | Tumor volumes on Day 15 (Day 15, animal F5)
90.91%: PI (TV), percent inhibition of tumor volume (Day 6)
—: Tumor measurement L (length) (Day 3, animal F1) | Tumor measurement W (width) (Day 3, animal F1) | Tumor measurement L (length) (Day 3, animal F2) | Tumor measurement W (width) (Day 3, animal F2) | Tumor measurement L (length) (Day 3, animal F4) | Tumor measurement W (width) (Day 3, animal F4) | Tumor measurement L (length) (Day 3, animal F5) | Tumor measurement W (width) (Day 3, animal F5) | Tumor measurement L (length) (Day 3, animal M1) | Tumor measurement W (width) (Day 3, animal M1) | Tumor measurement L (length) (Day 3, animal M3) | Tumor measurement W (width) (Day 3, animal M3) | Tumor measurement L (length) (Day 3, animal M4) | Tumor measurement W (width) (Day 3, animal M4) | Tumor measurement L (length) (Day 6, animal F1) | Tumor measurement W (width) (Day 6, animal F1) | Tumor measurement L (length) (Day 6, animal F2) | Tumor measurement W (width) (Day 6, animal F2) | Tumor measurement L (length) (Day 6, animal F4) | Tumor measurement W (width) (Day 6, animal F4) | Tumor measurement L (length) (Day 6, animal F5) | Tumor measurement W (width) (Day 6, animal F5) | Tumor measurement L (length) (Day 6, animal M1) | Tumor measurement W (width) (Day 6, animal M1) | Tumor measurement L (length) (Day 6, animal M2) | Tumor measurement W (width) (Day 6, animal M2) | Tumor measurement L (length) (Day 6, animal M3) | Tumor measurement W (width) (Day 6, animal M3) | Tumor measurement L (length) (Day 6, animal M4) | Tumor measurement W (width) (Day 6, animal M4) | Tumor measurement L (length) (Day 6, animal M5) | Tumor measurement W (width) (Day 6, animal M5)
0.1350 cm^3: Tumor volume (Day 12, animal F5)
0.0005 cm^3: Tumor volume (Day 3, animal M2) | Tumor volume (Day 3, animal M5) | Tumor volume (Day 6, animal F3) | Tumor volume (Day 9, animal F3) | Tumor volume (Day 9, animal F4) | Tumor volume (Day 9, animal F5) | Tumor volume (Day 9, animal M5)
0.1715 cm^3: Tumor volume (Day 12, animal F4) | Tumor volume (Day 12, animal M1) | Tumor volumes on Day 15 (Day 15, animal F4)
0.80 cm: Tumor measurements on Day 15, L (Day 15, animal F1) | Tumor measurements on Day 15, W (Day 15, animal F1)
1.20 cm: Tumor measurements on Day 15, L (Day 15, animal M2) | Tumor measurements on Day 15, W (Day 15, animal M2) | Tumor measurements on Day 15, L (Day 15, animal M4) | Tumor measurements on Day 15, W (Day 15, animal M4)
0.000 ± 0.0002 cm^3: Tumor Volume (cm^3) (Mean ± SD) (Day 6)
0.50 cm: Tumor measurements on Day 12, L (Day 12, animal F1) | Tumor measurements on Day 12, W (Day 12, animal F1) | Tumor measurements on Day 15, L (Day 15, animal F2) | Tumor measurements on Day 15, W (Day 15, animal F2)
0.70 cm: Tumor measurements on Day 12, L (Day 12, animal F4) | Tumor measurements on Day 12, W (Day 12, animal F4) | Tumor measurements on Day 12, L (Day 12, animal M1) | Tumor measurements on Day 12, W (Day 12, animal M1) | Tumor measurements on Day 15, L (Day 15, animal F4) | Tumor measurements on Day 15, W (Day 15, animal F4)
0.30 cm: Tumor measurement L (length) (Day 9, animal M1) | Tumor measurement W (width) (Day 9, animal M1) | Tumor measurement L (length) (Day 9, animal M2) | Tumor measurement W (width) (Day 9, animal M2) | Tumor measurement L (length) (Day 9, animal M3) | Tumor measurement W (width) (Day 9, animal M3) | Tumor measurement L (length) (Day 9, animal M4) | Tumor measurement W (width) (Day 9, animal M4) | Tumor measurements on Day 12, L (Day 12, animal F2) | Tumor measurements on Day 12, W (Day 12, animal F2) | Tumor measurements on Day 12, L (Day 12, animal F3) | Tumor measurements on Day 12, W (Day 12, animal F3) | Tumor measurements on Day 12, W (Day 12, animal F5) | Tumor measurements on Day 12, L (Day 12, animal M5) | Tumor measurements on Day 12, W (Day 12, animal M5)
0.5000 cm^3: Tumor volume (Day 12, animal M3) | Tumor volume (Day 12, animal M4) | Tumor volumes on Day 15 (Day 15, animal M1) | Tumor volumes on Day 15 (Day 15, animal M3)
0.006 ± 0.0065 cm^3: Tumor Volume (cm^3) (Mean ± SD) (Day 9)
0.380 ± 0.2991 cm^3: Tumor Volume (cm^3) (Mean ± SD) (Day 15)
0.3645 cm^3: Tumor volume (Day 12, animal M2) | Tumor volumes on Day 15 (Day 15, animal M5)
1.00 cm: Tumor measurements on Day 12, L (Day 12, animal M3) | Tumor measurements on Day 12, W (Day 12, animal M3) | Tumor measurements on Day 12, L (Day 12, animal M4) | Tumor measurements on Day 12, W (Day 12, animal M4) | Tumor measurements on Day 15, L (Day 15, animal M1) | Tumor measurements on Day 15, W (Day 15, animal M1) | Tumor measurements on Day 15, L (Day 15, animal M3) | Tumor measurements on Day 15, W (Day 15, animal M3)
0.0040 cm^3: Tumor volume (Day 3, animal F3) | Tumor volume (Day 9, animal F1)
48.12%: PI (TV), percent inhibition of tumor volume (Day 15)
0.001 ± 0.0012 cm^3: Tumor Volume (cm^3) (Mean ± SD) (Day 3)
0.20 cm: Tumor measurement L (length) (Day 3, animal F3) | Tumor measurement W (width) (Day 3, animal F3) | Tumor measurement L (length) (Day 9, animal F1) | Tumor measurement W (width) (Day 9, animal F1)
0.2560 cm^3: Tumor volumes on Day 15 (Day 15, animal F1)
0.0625 cm^3: Tumor volume (Day 12, animal F1) | Tumor volumes on Day 15 (Day 15, animal F2)
0.90 cm: Tumor measurements on Day 12, L (Day 12, animal M2) | Tumor measurements on Day 12, W (Day 12, animal M2) | Tumor measurements on Day 15, L (Day 15, animal M5) | Tumor measurements on Day 15, W (Day 15, animal M5)
0.0135 cm^3: Tumor volume (Day 9, animal M1) | Tumor volume (Day 9, animal M2) | Tumor volume (Day 9, animal M3) | Tumor volume (Day 9, animal M4) | Tumor volume (Day 12, animal F2) | Tumor volume (Day 12, animal F3) | Tumor volume (Day 12, animal M5)
0.10 cm: Tumor measurement L (length) (Day 3, animal M2) | Tumor measurement W (width) (Day 3, animal M2) | Tumor measurement L (length) (Day 3, animal M5) | Tumor measurement W (width) (Day 3, animal M5) | Tumor measurement L (length) (Day 6, animal F3) | Tumor measurement W (width) (Day 6, animal F3) | Tumor measurement L (length) (Day 9, animal F3) | Tumor measurement W (width) (Day 9, animal F3) | Tumor measurement L (length) (Day 9, animal F4) | Tumor measurement W (width) (Day 9, animal F4) | Tumor measurement L (length) (Day 9, animal F5) | Tumor measurement W (width) (Day 9, animal F5) | Tumor measurement L (length) (Day 9, animal M5) | Tumor measurement W (width) (Day 9, animal M5)
